Data as given in US20250255968A1, “INTRAVAGINAL DEVICES FOR DRUG DELIVERY” (priority 2011, published 2025).
Where a name gives a salt, the structure may show the parent alone. One block for each molecule: values may come before it.

How the values were obtained:
Assay type in all cases: physicochemical
[1] = In vitro release of EVG, DPV and TFV from hydrophilic polyurethane tubing reservoir rings; conditions: for TFV steady-state release rate: in presence of DPV or EVG
Text: Elvitegravir (EVG), TFV, and glycerol (63/5/32 wt % TFV/EVG/glycerol-water, where glycerol was premixed as a 33/2 wt % stock solution) was loaded into the lumen of 35 wt % swelling hydrophilic polyurethane single-segment tubing with 5.5 mm cross-sectional diameter and 0.7 mm wall thickness. […] Similarly, dapivirine (DPV) was formulated in various equilibrium swelling hydrophilic polyurethane tubing lumens (all with 5.5 mm cross-sectional diameter and 0.7 mm wall thickness) at 63/5/32 wt % TFV/DPV/glycerol-water (mean±SD, N=5). […] Both DPV and EVG rings described above were tested for in vitro release immediately after ring fabrication. It is known from above examples, as well as previously published work that amphiphilic and lipophilic compounds including DPV often are soluble in polyurethanes up to 20 wt %. Therefore, a ring delivering hydrophobic APIs, such as EVG or DPV, should show little or no lag time in releasing the drug after adequate storage time, since the API should partition into the tubing wall on ring storage. TFV release from HTPU 35 and 60% swelling rings was not noticeably affected by the presence of DPV and EVG (TFV steady-state release rates were approximately 13 and 22 mg/day, respectively).

[2] = In vitro release of IQP-0528 from hydrophobic tubing IVR; conditions: for 30 days; core 48 wt % drug/52 wt % glycerol in Tecoflex EG85A tubing preloaded with 4.7 wt % drug
Text: An IVR as described in Examples 1, 2, 3, and 9 is manufactured by premixing hydrophobic small molecule API (such as IQP-0528, UC-781, or levonorgestrel) with non-swellable polymer (such as Tecoflex®) and titanium dioxide. The tubing is then extruded as described above using a single screw extruder and tubing crosshead. The tubing may or may not incorporate reinforced/braided tubing or metallic springs to mechanically support the wall. The tubing is then filled with the API and excipient(s) mixture and joined to make a ring as described above. […] The core is composed of 48 wt % drug and 52 wt % glycerol paste filled in a hydrophobic tubing (Tecoflex® EG85A) preloaded with 4.7 wt % drug. In this example, approximately 600 μg of IQP-0528 was released daily for 30 days.

[3] = TDF release from HydroThane IVR after storage at elevated temperature
Experimental: As a means of diminishing or eliminating API release lag-time, devices may be stored at elevated temperature ranging from 40° C. to 70° C., depending on drug stability, for a predetermined amount of time to accelerate diffusion of the API from the tubing lumen to the tubing wall. After a predetermined time/temperature storage, the API loading in the device wall be equilibrated and the device will show minimal or no lag-time in drug release. This approach works for APIs which show some solubility in the rate-controlling polymer. Also, in certain instances this approach may negate the need for an osmotic agent. […] The IVRs are incubated at elevated temperatures, for example 65° C. for 5 days. […] This minimal amount of TDF in tubing wall reduced the lag time for equilibrium drug release and about 2-3 mg of TDF was delivered on days 1-3.

[4] = In vitro drug release testing of dual-segment TFV/LNG IVR in aqueous buffer sink; conditions: hydrophilic tubing reservoir segment of dual-segment IVR
Experimental: Example 29B. In a further example, a TFV/glycerol/water (65/33/2 wt %) semi-solid paste was loaded into the hydrophilic tubing reservoir segment and LNG was dissolved in the hydrophobic solid core reservoir segment of a dual segment IVR made according to Example 29A (using similar polyurethane tubing). The resulting IVR was subjected to in vitro drug release testing in an aqueous buffer sink for 90 days.

[5] = In vitro tenofovir release from single-segment reservoir IVR (HPLC); conditions: 35 wt % swelling Tecophilic HP-60D tubing IVR, TFV/glycerol 70/30 wt % core; pH 4.2 sodium acetate buffer, 37° C., 80 rpm
Experimental: (§1) In vitro tenofovir (TFV) release and IVR mechanical studies were conducted to evaluate device performance. IVRs were incubated in pH 4.2 sodium acetate buffer and placed in a 37° C., 80 rpm shaker for up to 120 days. Sink conditions were maintained throughout the entire experiment, and release media was changed daily. Quantification of amount of TFV released was determined using high performance liquid chromatography (HPLC) (aqueous mobile phase gradient method on reverse phase C18 column, Agilent 1200 series HPLC). Mechanical properties of the rings over time were measured by compressing rings 25% of their initial outer diameter at a rate of 1 mm/sec using an Instron 3342 mechanical testing system (Norwood, MA) with custom machined aluminum probe. The TFV release rapidly attained steady-state, and release was dependent on polymer equilibrium swelling. The 35 wt % polymer was able to maintain steady-state release through 105 days. Also, the ring mechanical properties changed little with time, even after all drug was released. (See FIG. 2.)

[6] = In vitro TFV release from Tecophilic HP-60D-35 IVR with or without osmotic agent glycerol
Experimental: as §1

[7] = In vitro TFV release from IVR with drug-impregnated polymeric core; conditions: HPU 60/TFV (40% w/w) core jacketed with HPU 20/TFV (5% w/w); sodium acetate buffer pH 4.2, 37° C., 77 days, after initial burst
Text: The HPU 20/TFV was used to jacket HPU 60/TFV using a twin-screw extruder and crosshead die. Reservoir rods were cut to approximately 14 cm sections, of which the ends were joined using an O-ring butt-welding clamp and medical grade Tecoflex® 1-MP fast-crystallization polyurethane adhesive, (200-300 cps viscosity, solution of polyurethane based polymer in methyl ethyl ketone and methylene chloride) resulting in a ring with 50-60 mm outer diameter and 5-6 mm outer cross-sectional diameter. […] Several of these IVRs were incubated at 37° C. and in sodium acetate buffer (pH 4.2) for 77 days. Sink conditions were maintained throughout the entire experiment. […] (See FIG. 5.)

Compound: Cc1cc(C)c(Nc2ccnc(Nc3ccc(C#N)cc3)n2)c(C)c1 [DPV, dapivirine]
DPV lag time ([1]; various hydrophilic polyurethane rings, tested immediately after fabrication): approximately two weeks

EVG release rate ([1]; for 28 days, unstored rings, 35 wt % swelling hydrophilic polyurethane tubing, 63/5/32 wt % TFV/EVG/glycerol-water): over 300 μg/day | EVG lag time ([1]; unstored rings, 35 wt % swelling hydrophilic polyurethane tubing): several-day lag time
Compound: COc1cc2c(cc1Cc1cccc(Cl)c1F)c(=O)c(C(=O)O)cn2[C@H](CO)C(C)C [EVG, Elvitegravir]

IQP-0528 released daily [2]: approximately 600 μg
Compound: Cc1cc(C)cc(C(=O)c2c(C(C)C)c(=O)[nH]c(=O)n2CC2CC2)c1 [IQP-0528]

TDF concentration in tubing wall ([3]; HydroThane 25-93A IVR, TDF + sodium chloride (15 wt % of TDF), incubated 65° C. for 5 days): 5 mg/g polymer | TDF delivered ([3]; on days 1-3, after 65° C. storage for 5 days): 2 to 3 mg
Compound: CC(C)OC(=O)OCOP(=O)(CO[C@H](C)Cn1cnc2c(N)ncnc21)OCOC(=O)OC(C)C [TDF, tenofovir disoproxil fumarate]

lag period before zero-order TFV release [4]: 1 days | TFV release profile ([4]; TFV/glycerol/water 65/33/2 wt % paste, 90 days): Zero-order release | TFV steady-state release rate ([1]; HTPU 35% swelling rings): approximately 13 mg/day | TFV steady-state release rate ([1]; HTPU 60% swelling rings): ~22 mg/day | duration of maintained steady-state TFV release [5]: 105 days | time to steady state TFV release rate ([6]; 65/33/2 wt % TFV/glycerol/water paste (glycerol 33 wt %)): ≤ 3 days | time to steady state TFV release rate ([6]; 100% TFV powder in the core): > 28 days | TFV release profile [7]: zero-order fashion
Compound: C[C@H](Cn1cnc2c(N)ncnc21)OCP(=O)(O)O [TFV, ({[(2R)-1-(6-amino-9H-purin-9-yl)propan-2-yl]oxy}methyl)phosphonic acid]
